According to US20200222323A1, “ADRENALIN-CONTAINING DOUBLE LAYERED LIPID VESICLES FOR USE IN THE TREATMENT OF CARDIAC EMERGENCIES” (UNIVERSITÀ DEGLI STUDI DI CAGLIARI, priority 2017, published 2020):

Key:
[1] = control solution, same conditions, PBS pH 7.4, 37° C.
Procedure: The in vitro studies on the release of adrenaline from the liposomal formulations were conducted with a modified dialysis technique or by means of a “sample and separate” method.
In the former case, a cellulose membrane (Spectra/Por®: cut-off 12-14 kDa MW, pore size 3 nm, Spectrum Laboratories Inc., USA) was positioned between the two compartments of a Franz vertical diffusion cell (Rofarma, Milan). The receptor compartment, with a capacity of 6.5 ml and a diffusion area of 0.636 cm2, was filled with a phosphate buffer solution (PBS pH 7.4) containing sodium metabisulphite (0.053 M), stirred constantly by a small magnetic stirrer at a controlled temperature of 37° C. for the whole duration of the experiment.
At 1-hour time intervals, for the 8 hours of the experiment, 1 ml of the solution in the receptor compartment was removed and restored with fresh buffer. The amount of adrenaline contained in the samples removed was analysed by HPLC.
Use was made of an XTerra C18 column (3.5 μiη, 4.6×150 mm, Waters), with a mobile phase composed of 86.5% water, 13.45% acetonitrile and 0.05% acetic acid (v/v) at a flow rate of 0.8 ml/min. A calibration curve was constructed using standard solutions (100-1 ng/μl), having a correlation coefficient (R2) of 0.999.

[2] = cited from earlier work
[3] = test system: human umbilical vein endothelial cells (HUVECs); settings: HUVEC, 5 hours treatment, adrenaline 3-120 μg/ml, MTT
Procedure: The biocompatibility of the formulation was tested on human umbilical vein endothelial cells (HUVECs) obtained from a pool of healthy donors (Promocell, Germany). The cells were cultured in Endothelial Cell Growth Medium 2 (ECGM 2, Promocell) enriched with penicillin (50 units/ml) and streptomycin (50 mg/ml), and maintained in an incubator with a humidified atmosphere, CO2 (5%) at 37° C. The cells were seeded in 96-well plates 24 hours before the treatment with liposomes (density 4×10^4 cells/well). […] At the end of the treatment, the medium was removed and replaced with 100 μl of a solution of 3-(4,5-dimethylthiazol-2-yl)-2,5-diphenyltetrazolium bromide (MTT) in PBS (0.5 mg/ml). After 4 hours of incubation at 37° C., the MTT was removed and 100 μl of dimethyl sulphoxide (DMSO) was added in each well. Absorbance was measured at 570 nm by means of a Synergy 4 plate reader (BioTek, Winooski, Vt., USA). The results are expressed as a percentage of viable cells compared to the untreated cells.

- total amount of drug released after the 8 hours of the experiment [1]: 70±3%
Compound: CNCC(O)c1ccc(O)c(O)c1 (stereo not drawn) [adrenaline]
- half-life in vivo [2]: ≤ 5 min
- viability of treated versus untreated cells [3]: no significant difference
